Laboratory results: US6372208B1, “Method of reducing an immune response to a recombinant virus” (The Trustees of the University of Pennsylvania, priority 1996, dated 2002)
Where two headings read alike, the source gives them in different places.

What was measured:
[1] = test system: E1-deleted adenovirus (H5.010CMVlacZ, H5.010CBALP)
[2] = test system: recombinant adenoviruses H5.010CBALP and H5.010CMVlacZ; assay: Liver-directed adenovirus gene transfer and readministration (Example 3); assay type: in vivo, C57BL/6 mice; settings: liver, readministered day 28, read day 31
Method: Experiments substantially identical to those described in Example 2 above were conducted in which viral vectors were administered into the blood for introduction of the transgene into the liver (rather than intratracheal delivery into the lung).
Female C57BL/6 mice (6-8 weeks old) were injected with suspensions of H5.010CBALP (1×10^9 pfu in 50 μl of PBS) i.p. at day 0 and similarly with H5.010CMVlacZ at day 28. One group of such mice was used as a control. Another group of mice was acutely depleted of CD4^+ cells by i.p. injection of antibody to CD4^+ cells (GK1.5; ATCC No. TIB207, 1:10 dilution of ascites) at the time of the initial gene therapy (days −3, 0, and +3). A third group of mice was injected with IL-12 (2 μg, i.p. injections) at the time of the first administration of virus (days 0 and +1). A fourth group of mice was injected with gamma interferon (2 μg, i.p. injections) at the time of the first administration of virus (days 0 and +1) .
When mice were subsequently euthanized and necropsied at days 3, 28, or 31, liver tissues were prepared for cryosections according to the procedures used above for lung tissue in Example 2.
The cryosection results were substantially similar for liver-directed gene therapy according to this method as for the lung-directed therapy of Example 2 above. The results described below were obtained from the alkaline phosphatase histochemical stains (magnification ×100) or β-galactosidase X-gal stains (magnification ×100).

[3] = test system: human Ad5 recombinant vector; assay: Neutralizing antibody to adenovirus in BAL (Hela cell lacZ transduction); assay type: in vivo, C57BL/6 mice; settings: day 28, versus control mice
Method: BAL samples obtained from animals 28 days after primary exposure to recombinant virus were evaluated for neutralizing antibodies to adenovirus and anti-adenovirus antibody isotypes as follows. The same four groups of C57BL/6 mice, i.e., control, CD4^+ depleted, IL-12 treated and IFN-γ treated, were infected with H5.010BALP. Neutralizing antibody was measured in serially-diluted BAL samples (100 μl) which were mixed with H5.010CBlacZ (1×10^6 pfu in 20 μl), incubated for 1 hour at 37° C., and applied to 80% confluent Hela cells in 96 well plates (2×10^4 cells per well). After 60 minutes of incubation at 37° C., 100 μl of DMEM containing 20% FBS was added to each well. Cells were fixed and stained for β-galactosidase expression the following day.
(§1) The results are shown graphically in FIGS. 1A through 1C, which summarize neutralizing antibody titer, and the relative amounts (OD405) of IgG and IgA present in BAL samples.

H5.010CBlacZ = assay: Adenovirus-specific IgG and IgA in BAL by ELISA; assay type: in vivo, C57BL/6 mice; settings: day 28, versus control mice
Method: Adenovirus-specific antibody isotype was determined in BAL by using an enzyme-linked immunosorbent assay (ELISA). Briefly, 96-well plates were coated with 100 μl of PBS containing 5×10^9 particles of H5.010CBlacZ for 18 hours at 4° C. The wells were washed 5 times with PBS. After blocking with 200 μl of 2% BSA in PBS, the plates were rinsed once with PBS and incubated with 1:10 diluted BAL samples for 90 minutes at 4° C. Thereafter, the wells were extensively washed and refilled with 100 μl of 1:1000 diluted ALP-conjugated anti-mouse IgG or IgA (Sigma). The plates were incubated, subsequently washed 5 times, and 100 μl of the substrate solution (p-nitrophenyl phosphate, PNPP) was added to each well. Substrate conversion was stopped by the addition of 50 μl of 0.1M EDTA, and reactions were read at 405 nm.
as §1

[4] = test system: recombinant adenoviruses H5.010CBALP and H5.010CMVlacZ; assay: Lung-directed adenovirus gene transfer and readministration, transgene expression by histochemistry (Example 2); assay type: in vivo, C57BL/6 mice; settings: lung, readministered day 28, read day 31
Method: Female C57BL/6 mice (6˜8 week old) were infected with suspensions of H5.010CBALP (1×10^9 pfu in 50 μl of PBS) via the trachea at day 0 and similarly with H5.010CMVlacZ at day 28. One group of such mice was used as a control. Another group of mice were acutely depleted of CD4^+ cells by i.p. injection of antibody to CD4^+ cells (GK1.5; ATCC No. TIB207, 1:10 dilution of ascites) at the time of the initial gene therapy (days −3, 0, and +3). A third group of mice was injected with IL-12 (1 μg intratracheal or 2 μg, i.p. injections) at the time of the first administration of virus (days 0 and +1). A fourth group of mice was injected with gamma interferon. (1 μg intratracheal or 2 μg, i.p. injections) at the time of the first administration of virus (days 0 and +1).
When mice were subsequently euthanized and necropsied at days 3, 28, or 31, lung tissues were prepared for cryosections, while bronchial alveolar lavage (BAL) and mediastinal lymph nodes (MLN) were harvested for immunological assays.
The lung tissues were evaluated for ALP expression at day 3 and day 28 by histochemical staining following the procedures of Yang I, cited above. β-galactosidase expression was assayed at day 31 by X-gal histochemical staining. The results described below were obtained from the alkaline phosphatase histochemical stains (magnification ×100) or β-galactosidase X-gal stains (magnification ×100).

Compound	transgene expression ([1]; liver)	formation of neutralizing antibody ([1]; liver, at higher doses)	vector readministration ([1]; liver, at higher doses)	CD4 and CD8 T helper cell activation to adenovirus capsid protein ([1]; liver, short course at the time of virus delivery)	formation of neutralizing antibodies ([1]; lung)	transgene expression ([1]; lung)	gene transfer upon second administration of virus (lacZ) [2]	neutralizing antibody in BAL [3]	virus specific IgA in BAL (H5.010CBlacZ)	gene transfer upon second administration of virus (lacZ) [4]
O=P1(N(CCCl)CCCl)NCCCO1 (stereo not shown) [cyclophosphamide]	transgene expression was prolonged	formation of neutralizing antibody was prevented	allowing successful vector readministration	successfully interrupt both CD4 and CD8 T helper cell activation	prevented formation of neutralizing antibodies at all doses	stabilized transgene expression at high dose	–	–	–	–
gamma interferon [IFN-γ]	–	–	–	–	–	–	efficient gene transfer was accomplished upon a second administration of virus	decreased as compared to the control animals not treated with cytokine, but not to the extent obtained with those treated with IL-12	decreased as compared to the control animals not treated with cytokine, but not to the extent obtained with those treated with IL-12	efficient gene transfer was accomplished upon a second administration of virus
